From patent publication US20080032985A1, “4-Substituted Quinoline Derivatives, Method and Intermediates for Their Preparation and Pharmaceutical Compositions Containing Them” (priority 2004, published 2008)
Converted amounts (≈) assume the structure as drawn.

How the values were obtained:
[1] = tested on: S. aureus AS 5155 methicillin resistant; assay: MIC by dilutions in agar medium (NCCLS), Gram-positive; type: cell-based; details: Staphylococcus aureus; at 24 hours; agar dilution
Description: (§1) The method of dilutions in agar medium in agreement with the NCCLS recommendations is used for the determination of the minimum inhibitory concentrations (MIC) expressed in mg/l.
(§2) The activities of the compounds of examples 5, 8, 10-13 are grouped together in the following table: […]

[2] = tested on: E. faecalis ATCC S343211 vancomycin resistant; assay: as above; type: cell-based; details: Enterococcus faecalis; at 24 hours; agar dilution
Description: as §1, §2

[3] = tested on: S. pneumoniae 6254-01 MLSB resistant; assay: as above; type: cell-based; details: Streptococcus pneumoniae; at 24 hours; agar dilution
Description: as §1, §2

[4] = tested on: S. aureus IP8203 sensitive; assay: as above; type: cell-based; details: Staphylococcus aureus; at 24 hours; agar dilution
Description: as §1, §2

[5] = tested on: M. catarrhalis IPA151 sensitive; assay: MIC by dilutions in agar medium (NCCLS), Gram-negative; type: cell-based; details: Moraxella catarrhalis, IPA151SENSITIVE; at 48 hours; agar dilution
Description: as §1, §2

[6] = tested on: H. influenzae MDK 1528 sensitive; assay: as above; type: cell-based; details: Haemophilus influenzae; at 48 hours; agar dilution
Description: as §1, §2

Row | melting point | MIC [1] | MIC [2] | MIC [3] | MIC [4] | MIC [5] | MIC [6] | SMILES
1 | – | 0.12 to 1 µg/mL (≈ 0.259 to 2.16 µM) | 0.25 to 1 µg/mL (≈ 0.541 to 2.16 µM) | 0.25 to 0.5 µg/mL (≈ 0.541 to 1.08 µM) | 0.12 to 1 µg/mL (≈ 0.259 to 2.16 µM) | 0.5 to 4 µg/mL (≈ 1.08 to 8.65 µM) | 2 to 8 µg/mL (≈ 4.32 to 17.3 µM) | COc1ccc2ncc(F)c(CCCC(CNCCOc3cc(F)ccc3F)C(=O)O)c2c1 (racemic) [Example 13, (RS)-2-{[2-(2,5-Difluorophenoxy)ethylamino]methyl}-5-(3-fluoro-6-methoxyquinolin-4-yl)pentanoic acid]
2 | – | 0.12 to 1 µg/mL (≈ 0.261 to 2.17 µM) | 0.25 to 1 µg/mL (≈ 0.543 to 2.17 µM) | 0.25 to 0.5 µg/mL (≈ 0.543 to 1.09 µM) | 0.12 to 1 µg/mL (≈ 0.261 to 2.17 µM) | 0.5 to 4 µg/mL (≈ 1.09 to 8.69 µM) | 2 to 8 µg/mL (≈ 4.34 to 17.4 µM) | COc1ccc2ncc(F)c(CCCC(CNCCCc3cc(F)ccc3F)C(=O)O)c2c1 (racemic) [Example 8, (RS)-2-{[3-(2,5-difluorophenyl)propylamino]methyl}-5-(3-fluoro-6-methoxyquinolin-4-yl)pentanoic acid]
3 | – | 0.12 to 1 µg/mL (≈ 0.251 to 2.09 µM) | 0.25 to 1 µg/mL (≈ 0.522 to 2.09 µM) | 0.25 to 0.5 µg/mL (≈ 0.522 to 1.04 µM) | 0.12 to 1 µg/mL (≈ 0.251 to 2.09 µM) | 0.5 to 4 µg/mL (≈ 1.04 to 8.36 µM) | 2 to 8 µg/mL (≈ 4.18 to 16.7 µM) | COc1ccc2ncc(F)c(CCCC(CNCCSc3cc(F)ccc3F)C(=O)O)c2c1 (racemic) [Example 12, (RS)-2-{[2-(2,5-Difluorophenylsulfanyl)ethylamino]-methyl}-5-(3-fluoro-6-methoxyquinolin-4-yl)pentanoic acid]

Continued, molecule first:

Row | SMILES | melting point | MIC [1] | MIC [2] | MIC [3] | MIC [4] | MIC [5] | MIC [6]
4 | COc1ccc2ncc(F)c(CCCC(CN(C/C=C/c3cc(F)ccc3F)CCF)C(=O)O)c2c1 (racemic) [Example 14, (RS)-2-{[N-[(E)-3-(2,5-difluorophenyl)allyl]-N-(2-fluoroethyl)amino]methyl}-5-(3-fluoro-6-methoxy-quinolin-4-yl)pentanoic acid] | 120 °C | – | – | – | – | – | –
5 | COc1ccc2ncc(F)c(CCCC(CNC/C=C/c3cc(F)ccc3F)C(=O)O)c2c1 (single isomer, unassigned) [Example 6, 2-{[(E)-3-(2,5-difluorophenyl)allylamino]methyl}-5-(3-fluoro-6-methoxyquinolin-4-yl)pentanoic acid] | 168 °C | – | – | – | – | – | –
6 | COc1ccc2ncc(F)c(CCCC(CNC/C=C/c3cc(F)ccc3F)C(=O)O)c2c1 (single isomer, unassigned) [Example 7, 2-{[(E)-3-(2,5-difluorophenyl)allylamino]methyl}-5-(3-fluoro-6-methoxyquinolin-4-yl)pentanoic acid] | 166 °C | – | – | – | – | – | –
7 | COc1ccc2ncc(F)c(CCCC(CNCCSc3cccs3)C(=O)O)c2c1 (racemic) [Example 11, (RS)-5-(3-Fluoro-6-methoxyquinolin-4-yl)-2-{[2-(thiophen-2-ylsulfanyl)ethylamino]methyl}pentanoic acid] | – | 0.12 to 1 µg/mL (≈ 0.268 to 2.23 µM) | 0.25 to 1 µg/mL (≈ 0.557 to 2.23 µM) | 0.25 to 0.5 µg/mL (≈ 0.557 to 1.11 µM) | 0.12 to 1 µg/mL (≈ 0.268 to 2.23 µM) | 0.5 to 4 µg/mL (≈ 1.11 to 8.92 µM) | 2 to 8 µg/mL (≈ 4.46 to 17.8 µM)
8 | COc1ccc2ncc(F)c(CCCC(CN(C)C/C=C/c3cc(F)ccc3F)C(=O)[O-])c2c1.[Na+] (racemic) [Example 10, Sodium (RS)-2-({N-[(E)-3-(2,5-difluorophenyl)allyl]-N-methylamino}methyl)-5-(3-fluoro-6-methoxyquinolin-4-yl)pentanoate] | – | 0.12 to 1 µg/mL | 0.25 to 1 µg/mL | 0.25 to 0.5 µg/mL | 0.12 to 1 µg/mL | 0.5 to 4 µg/mL | 2 to 8 µg/mL
9 | COc1ccc2ncc(F)c(CCCC(CNC/C=C/c3cc(F)ccc3F)C(=O)O)c2c1 (racemic) [Example 5, (RS)-2-{[(E)-3-(2,5-difluorophenyl)allylamino]methyl}-5-(3-fluoro-6-methoxyquinolin-4-yl)pentanoic acid] | – | 0.12 to 1 µg/mL (≈ 0.262 to 2.18 µM) | 0.25 to 1 µg/mL (≈ 0.545 to 2.18 µM) | 0.25 to 0.5 µg/mL (≈ 0.545 to 1.09 µM) | 0.12 to 1 µg/mL (≈ 0.262 to 2.18 µM) | 0.5 to 4 µg/mL (≈ 1.09 to 8.72 µM) | 2 to 8 µg/mL (≈ 4.36 to 17.4 µM)
